According to ChEMBL document CHEMBL4507274 (2021):

Assays:
[1] = tested on: Tyrosine-protein kinase ABL1 (Homo sapiens), P00519 [Q252H]; conditions: Compound concentration 100.0 nM
[2] = biological target: RAC-beta serine/threonine-protein kinase (Homo sapiens) (UniProt P31751); conditions: Compound concentration 100.0 nM
[3] = biological target: Mitogen-activated protein kinase kinase kinase 6 (Homo sapiens) (UniProt O95382); conditions: Compound concentration 100.0 nM
[4] = biological target: Tyrosine-protein kinase Blk (Homo sapiens) (UniProt P51451); conditions: Compound concentration 100.0 nM
[5] = biological target: Calcium/calmodulin-dependent protein kinase type 1D (Homo sapiens) (UniProt Q8IU85); conditions: Compound concentration 100.0 nM
[6] = biological target: Cyclin-dependent kinase 4 (Homo sapiens) (UniProt P11802); conditions: Compound concentration 100.0 nM
Cyclin-dependent kinase 4 (Homo sapiens), sequence (P11802 whole entry): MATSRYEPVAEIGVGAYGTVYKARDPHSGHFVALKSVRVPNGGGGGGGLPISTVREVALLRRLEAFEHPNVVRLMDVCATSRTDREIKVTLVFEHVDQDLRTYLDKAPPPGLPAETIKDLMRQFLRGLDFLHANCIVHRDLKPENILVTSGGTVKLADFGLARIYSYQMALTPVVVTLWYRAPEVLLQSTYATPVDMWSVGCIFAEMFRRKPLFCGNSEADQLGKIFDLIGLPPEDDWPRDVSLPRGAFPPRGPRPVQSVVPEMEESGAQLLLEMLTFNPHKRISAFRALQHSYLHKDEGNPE

[7] = biological target: Mitogen-activated protein kinase 6 (Homo sapiens) (UniProt Q16659); conditions: Compound concentration 100.0 nM
[8] = biological target: Serine/threonine-protein kinase/endoribonuclease IRE1 (Homo sapiens) (UniProt O75460); conditions: Compound concentration 100.0 nM
[9] = biological target: Fibroblast growth factor receptor 4 (Homo sapiens) (UniProt P22455); conditions: Compound concentration 100.0 nM
[10] = biological target: Tyrosine-protein kinase Fgr (Homo sapiens) (UniProt P09769); conditions: Compound concentration 100.0 nM
Tyrosine-protein kinase Fgr (Homo sapiens), sequence (P09769 2-529 limits assumed): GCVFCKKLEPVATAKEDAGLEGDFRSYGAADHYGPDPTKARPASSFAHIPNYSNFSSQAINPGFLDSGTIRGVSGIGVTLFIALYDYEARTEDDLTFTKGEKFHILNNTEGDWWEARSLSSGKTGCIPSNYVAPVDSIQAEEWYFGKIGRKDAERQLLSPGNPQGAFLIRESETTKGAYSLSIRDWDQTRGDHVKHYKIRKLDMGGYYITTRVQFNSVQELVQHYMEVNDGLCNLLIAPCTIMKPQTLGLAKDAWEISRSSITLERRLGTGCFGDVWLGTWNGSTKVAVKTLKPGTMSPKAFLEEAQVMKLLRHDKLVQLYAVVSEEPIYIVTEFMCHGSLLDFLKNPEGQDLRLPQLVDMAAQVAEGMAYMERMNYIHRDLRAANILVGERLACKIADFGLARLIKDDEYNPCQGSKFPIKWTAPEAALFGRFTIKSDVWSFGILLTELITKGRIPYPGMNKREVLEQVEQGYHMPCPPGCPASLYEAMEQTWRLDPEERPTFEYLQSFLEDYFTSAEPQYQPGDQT

[11] = biological target: Receptor-type tyrosine-protein kinase FLT3 (Homo sapiens) (UniProt P36888); conditions: Compound concentration 100.0 nM
[12] = biological target: Vascular endothelial growth factor receptor 3 (Homo sapiens) (UniProt P35916); conditions: Compound concentration 100.0 nM
[13] = biological target: Insulin receptor-related protein (Homo sapiens) (UniProt P14616); conditions: Compound concentration 100.0 nM
[14] = biological target: Mitogen-activated protein kinase 9 (Homo sapiens) (UniProt P45984); conditions: Compound concentration 100.0 nM
[15] = tested on: Mast/stem cell growth factor receptor Kit (Homo sapiens), P10721 [A829P]; conditions: Compound concentration 100.0 nM
[16] = biological target: Mitogen-activated protein kinase kinase kinase 2 (Homo sapiens) (UniProt Q9Y2U5); conditions: Compound concentration 100.0 nM
[17] = biological target: Mitogen-activated protein kinase kinase kinase 3 (Homo sapiens) (UniProt Q99759); conditions: Compound concentration 100.0 nM
Mitogen-activated protein kinase kinase kinase 3 (Homo sapiens), sequence (Q99759 whole entry): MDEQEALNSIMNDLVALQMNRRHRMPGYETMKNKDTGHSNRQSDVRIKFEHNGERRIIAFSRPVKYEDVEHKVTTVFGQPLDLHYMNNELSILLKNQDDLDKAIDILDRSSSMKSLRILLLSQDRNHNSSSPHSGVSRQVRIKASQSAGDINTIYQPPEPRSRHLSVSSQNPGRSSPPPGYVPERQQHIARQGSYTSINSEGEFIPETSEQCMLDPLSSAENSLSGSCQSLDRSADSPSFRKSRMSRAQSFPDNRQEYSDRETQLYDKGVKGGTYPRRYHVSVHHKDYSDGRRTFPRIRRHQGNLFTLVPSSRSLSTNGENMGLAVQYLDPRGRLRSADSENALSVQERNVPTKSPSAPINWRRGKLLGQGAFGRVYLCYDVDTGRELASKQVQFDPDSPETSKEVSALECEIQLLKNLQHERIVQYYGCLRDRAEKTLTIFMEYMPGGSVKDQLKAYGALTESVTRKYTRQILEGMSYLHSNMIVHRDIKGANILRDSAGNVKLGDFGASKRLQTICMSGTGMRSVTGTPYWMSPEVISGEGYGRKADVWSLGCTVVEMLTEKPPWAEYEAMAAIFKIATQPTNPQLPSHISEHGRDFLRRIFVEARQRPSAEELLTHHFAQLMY

[18] = biological target: Dual specificity mitogen-activated protein kinase kinase 1 (Homo sapiens) (UniProt Q02750); conditions: Compound concentration 100.0 nM
[19] = biological target: T1, Serine/threonine-protein kinase 3 (Homo sapiens) (UniProt Q13188); conditions: Compound concentration 100.0 nM
T1 sequence (whole entry): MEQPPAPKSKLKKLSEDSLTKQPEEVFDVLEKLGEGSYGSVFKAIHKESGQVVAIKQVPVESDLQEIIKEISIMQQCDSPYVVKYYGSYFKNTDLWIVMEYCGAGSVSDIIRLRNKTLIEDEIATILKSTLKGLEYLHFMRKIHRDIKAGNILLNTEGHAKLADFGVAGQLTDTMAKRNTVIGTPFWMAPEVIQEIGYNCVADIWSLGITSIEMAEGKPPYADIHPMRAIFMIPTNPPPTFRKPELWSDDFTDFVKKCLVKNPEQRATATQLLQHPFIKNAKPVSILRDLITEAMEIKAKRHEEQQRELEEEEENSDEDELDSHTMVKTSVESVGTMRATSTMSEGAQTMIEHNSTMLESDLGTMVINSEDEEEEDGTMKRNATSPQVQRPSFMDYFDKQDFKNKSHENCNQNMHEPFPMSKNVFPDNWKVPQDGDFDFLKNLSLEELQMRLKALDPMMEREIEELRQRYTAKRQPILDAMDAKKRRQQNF

[20] = biological target: Myosin light chain kinase, smooth muscle (Homo sapiens) (UniProt Q15746); conditions: Compound concentration 100.0 nM
[21] = biological target: Myosin light chain kinase 2, skeletal/cardiac muscle (Homo sapiens) (UniProt Q9H1R3); conditions: Compound concentration 100.0 nM
[22] = biological target: Serine/threonine-protein kinase 38 (Homo sapiens) (UniProt Q15208); conditions: Compound concentration 100.0 nM
[23] = biological target: Serine/threonine-protein kinase Nek10 (Homo sapiens) (UniProt Q6ZWH5); conditions: Compound concentration 100.0 nM
Serine/threonine-protein kinase Nek10 (Homo sapiens), sequence (Q6ZWH5 whole entry): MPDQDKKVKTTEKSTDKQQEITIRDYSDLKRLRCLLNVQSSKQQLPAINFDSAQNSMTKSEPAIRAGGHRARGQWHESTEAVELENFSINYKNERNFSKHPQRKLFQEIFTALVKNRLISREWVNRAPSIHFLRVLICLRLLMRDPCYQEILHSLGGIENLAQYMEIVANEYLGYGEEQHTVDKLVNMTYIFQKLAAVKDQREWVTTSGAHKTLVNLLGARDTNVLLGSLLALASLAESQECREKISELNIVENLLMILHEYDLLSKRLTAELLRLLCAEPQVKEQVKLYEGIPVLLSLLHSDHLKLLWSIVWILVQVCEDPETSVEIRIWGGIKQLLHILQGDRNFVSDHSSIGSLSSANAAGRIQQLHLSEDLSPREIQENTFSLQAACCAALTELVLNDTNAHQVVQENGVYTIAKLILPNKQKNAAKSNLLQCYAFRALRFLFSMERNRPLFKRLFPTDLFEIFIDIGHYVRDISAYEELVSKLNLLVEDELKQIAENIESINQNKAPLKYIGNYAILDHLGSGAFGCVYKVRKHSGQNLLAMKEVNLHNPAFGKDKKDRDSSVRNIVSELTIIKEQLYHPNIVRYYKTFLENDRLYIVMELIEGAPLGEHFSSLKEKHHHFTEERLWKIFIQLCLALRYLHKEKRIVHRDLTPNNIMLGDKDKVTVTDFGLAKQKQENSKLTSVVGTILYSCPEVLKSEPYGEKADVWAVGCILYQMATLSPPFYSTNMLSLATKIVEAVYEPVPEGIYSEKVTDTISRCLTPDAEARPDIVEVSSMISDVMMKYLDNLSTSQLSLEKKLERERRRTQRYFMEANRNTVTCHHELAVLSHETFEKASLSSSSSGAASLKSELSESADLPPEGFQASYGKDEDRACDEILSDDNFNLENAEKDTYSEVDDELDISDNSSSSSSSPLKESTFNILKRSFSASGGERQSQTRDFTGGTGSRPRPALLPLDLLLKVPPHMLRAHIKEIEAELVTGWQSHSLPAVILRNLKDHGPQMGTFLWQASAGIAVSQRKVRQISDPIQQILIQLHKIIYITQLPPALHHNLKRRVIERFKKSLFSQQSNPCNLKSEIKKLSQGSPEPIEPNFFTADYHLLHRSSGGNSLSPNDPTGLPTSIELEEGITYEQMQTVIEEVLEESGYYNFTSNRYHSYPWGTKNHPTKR

[24] = biological target: Cyclin-dependent kinase 16 (Homo sapiens) (UniProt Q00536); conditions: Compound concentration 100.0 nM
[25] = biological target: Platelet-derived growth factor receptor beta (Homo sapiens) (UniProt P09619); conditions: Compound concentration 100.0 nM
[26] = tested on: Phosphatidylinositol 4,5-bisphosphate 3-kinase catalytic subunit alpha isoform (Homo sapiens), P42336 [C420R]; conditions: Compound concentration 100.0 nM
[27] = biological target: Phosphatidylinositol 4-phosphate 5-kinase type-1 alpha (Homo sapiens) (UniProt Q99755); conditions: Compound concentration 100.0 nM
[28] = biological target: Protein kinase C eta type (Homo sapiens) (UniProt P24723); conditions: Compound concentration 100.0 nM
[29] = biological target: Dual serine/threonine and tyrosine protein kinase (Homo sapiens) (UniProt Q6XUX3); conditions: Compound concentration 100.0 nM
[30] = biological target: Ribosomal protein S6 kinase alpha-4 (Homo sapiens) (UniProt O75676); conditions: Compound concentration 100.0 nM
[31] = biological target: Uncharacterized serine/threonine-protein kinase SBK3 (Homo sapiens) (UniProt P0C264); conditions: Compound concentration 100.0 nM
[32] = biological target: Serine/threonine-protein kinase Sgk3 (Homo sapiens) (UniProt Q96BR1); conditions: Compound concentration 100.0 nM
Serine/threonine-protein kinase Sgk3 (Homo sapiens), sequence (Q96BR1 whole entry): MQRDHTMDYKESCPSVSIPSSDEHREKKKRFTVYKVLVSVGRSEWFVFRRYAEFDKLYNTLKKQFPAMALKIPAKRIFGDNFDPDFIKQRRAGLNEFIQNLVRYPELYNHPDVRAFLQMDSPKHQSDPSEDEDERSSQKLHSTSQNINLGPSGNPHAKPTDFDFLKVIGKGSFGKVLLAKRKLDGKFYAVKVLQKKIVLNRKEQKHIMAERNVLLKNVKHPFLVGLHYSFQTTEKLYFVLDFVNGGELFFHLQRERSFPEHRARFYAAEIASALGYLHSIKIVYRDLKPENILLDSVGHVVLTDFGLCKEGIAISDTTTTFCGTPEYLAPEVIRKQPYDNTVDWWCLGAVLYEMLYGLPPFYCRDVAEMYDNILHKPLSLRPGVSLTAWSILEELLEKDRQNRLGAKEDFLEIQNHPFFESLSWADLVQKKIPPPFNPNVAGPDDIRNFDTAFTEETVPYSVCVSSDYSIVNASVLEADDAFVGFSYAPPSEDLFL

[33] = biological target: Serine/threonine-protein kinase ULK2 (Homo sapiens) (UniProt Q8IYT8); conditions: Compound concentration 100.0 nM
Serine/threonine-protein kinase ULK2 (Homo sapiens), sequence (Q8IYT8 whole entry): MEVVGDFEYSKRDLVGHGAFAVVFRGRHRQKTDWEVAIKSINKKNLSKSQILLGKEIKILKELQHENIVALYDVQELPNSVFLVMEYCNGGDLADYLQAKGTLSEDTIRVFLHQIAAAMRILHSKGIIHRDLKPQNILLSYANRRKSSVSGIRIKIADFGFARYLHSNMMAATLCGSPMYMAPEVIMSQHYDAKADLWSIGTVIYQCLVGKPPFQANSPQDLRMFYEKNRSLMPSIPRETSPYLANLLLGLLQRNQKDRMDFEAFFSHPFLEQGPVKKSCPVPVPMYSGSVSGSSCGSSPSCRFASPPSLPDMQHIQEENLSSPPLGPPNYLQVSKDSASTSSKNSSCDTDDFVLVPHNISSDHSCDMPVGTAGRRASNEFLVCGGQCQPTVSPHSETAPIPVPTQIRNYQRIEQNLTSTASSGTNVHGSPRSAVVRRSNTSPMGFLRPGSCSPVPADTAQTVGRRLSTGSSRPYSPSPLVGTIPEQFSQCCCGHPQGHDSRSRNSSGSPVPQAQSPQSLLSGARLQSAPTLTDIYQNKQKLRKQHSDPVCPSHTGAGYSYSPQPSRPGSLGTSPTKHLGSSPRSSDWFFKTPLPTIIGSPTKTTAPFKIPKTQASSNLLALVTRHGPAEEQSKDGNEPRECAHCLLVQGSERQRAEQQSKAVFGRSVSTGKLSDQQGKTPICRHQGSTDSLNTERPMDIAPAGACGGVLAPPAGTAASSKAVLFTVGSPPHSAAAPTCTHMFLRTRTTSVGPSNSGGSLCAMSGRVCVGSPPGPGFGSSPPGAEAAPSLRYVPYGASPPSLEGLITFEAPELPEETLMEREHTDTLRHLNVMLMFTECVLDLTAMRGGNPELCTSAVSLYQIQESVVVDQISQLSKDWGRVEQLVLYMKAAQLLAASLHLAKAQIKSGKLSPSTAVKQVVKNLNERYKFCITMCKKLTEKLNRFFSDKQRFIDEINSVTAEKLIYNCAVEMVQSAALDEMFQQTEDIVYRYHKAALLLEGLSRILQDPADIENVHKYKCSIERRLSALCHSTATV

[34] = biological target: Phosphatidylinositol 3-kinase catalytic subunit type 3 (Homo sapiens) (UniProt Q8NEB9); conditions: Compound concentration 100.0 nM
[35] = biological target: Wee1-like protein kinase 2 (Homo sapiens) (UniProt P0C1S8); conditions: Compound concentration 100.0 nM
[36] = biological target: Serine/threonine-protein kinase WNK4 (Homo sapiens) (UniProt Q96J92); conditions: Compound concentration 100.0 nM
[37] = biological target: 5-hydroxytryptamine receptor 6 (Homo sapiens) (UniProt P50406); conditions: Compound concentration 10.0 uM
[38] = biological target: Histamine H4 receptor (Homo sapiens) (UniProt Q9H3N8); conditions: Compound concentration 10.0 uM
Histamine H4 receptor (Homo sapiens), sequence (Q9H3N8 whole entry): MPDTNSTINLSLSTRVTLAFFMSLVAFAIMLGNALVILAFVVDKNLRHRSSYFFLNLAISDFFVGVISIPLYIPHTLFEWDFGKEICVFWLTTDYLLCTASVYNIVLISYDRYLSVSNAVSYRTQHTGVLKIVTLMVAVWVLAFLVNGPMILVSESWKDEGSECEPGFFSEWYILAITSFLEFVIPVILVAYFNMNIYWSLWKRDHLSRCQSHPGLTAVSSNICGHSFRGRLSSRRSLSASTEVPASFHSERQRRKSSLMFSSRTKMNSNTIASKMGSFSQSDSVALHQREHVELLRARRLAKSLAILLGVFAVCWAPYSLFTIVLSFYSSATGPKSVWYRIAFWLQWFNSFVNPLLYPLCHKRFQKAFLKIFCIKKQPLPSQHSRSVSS

[39] = biological target: Muscarinic acetylcholine receptor M1 (Homo sapiens) (UniProt P11229); conditions: Compound concentration 10.0 uM

RAC-beta serine/threonine-protein kinase (Homo sapiens), sequence (P31751 whole entry): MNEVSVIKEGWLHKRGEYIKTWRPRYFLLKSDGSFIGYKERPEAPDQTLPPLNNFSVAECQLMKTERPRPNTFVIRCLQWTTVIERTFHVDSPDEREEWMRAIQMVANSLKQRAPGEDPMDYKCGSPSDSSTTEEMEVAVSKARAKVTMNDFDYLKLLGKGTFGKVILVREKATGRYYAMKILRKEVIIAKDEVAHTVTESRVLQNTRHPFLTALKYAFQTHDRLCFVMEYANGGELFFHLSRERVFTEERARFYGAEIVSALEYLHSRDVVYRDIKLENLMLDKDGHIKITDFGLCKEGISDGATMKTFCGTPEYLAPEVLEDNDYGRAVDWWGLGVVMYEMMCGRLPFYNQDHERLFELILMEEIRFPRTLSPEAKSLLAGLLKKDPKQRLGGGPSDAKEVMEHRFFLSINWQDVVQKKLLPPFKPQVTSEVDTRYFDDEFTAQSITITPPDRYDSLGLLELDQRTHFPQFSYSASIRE

Cc1c[nH]c2nccc(Oc3c(F)cc(Nc4cc(Cl)nc(N)n4)cc3F)c12 [BAY-549]
inactive: residual activity [1] 85% | residual activity [2] 98% | residual activity [3] 100% | residual activity [4] 90% | residual activity [5] 94% | residual activity [6] 67% | residual activity [7] 95% | residual activity [8] 68% | residual activity [9] 100% | residual activity [10] 100% | residual activity [11] 75% | residual activity [12] 98% | residual activity [13] 91% | residual activity [14] 93% | residual activity [15] 70% | residual activity [16] 89% | residual activity [17] 99% | residual activity [18] 81% | residual activity [19] 69% | residual activity [20] 80% | residual activity [21] 98% | residual activity [22] 89% | residual activity [23] 75% | residual activity [24] 99% | residual activity [25] 83% | residual activity [26] 89% | residual activity [27] 68% | residual activity [28] 74% | residual activity [29] 67% | residual activity [30] 83% | residual activity [31] 87% | residual activity [32] 88% | residual activity [33] 89% | residual activity [34] 67% | residual activity [35] 91% | residual activity [36] 100% | inhibition [37] -1.5% | inhibition [38] -8.74% | inhibition [39] -0.22%

Cn1cc(Cl)c2c(Oc3c(F)cc(Nc4cc(Cl)nc(N)n4)cc3F)ccnc21 [BAY-4900]
inactive: residual activity [1] 78% | residual activity [2] 100% | residual activity [3] 100% | residual activity [4] 96% | residual activity [5] 100% | residual activity [6] 85% | residual activity [7] 100% | residual activity [8] 76% | residual activity [9] 86% | residual activity [10] 100% | residual activity [11] 83% | residual activity [12] 96% | residual activity [13] 100% | residual activity [14] 86% | residual activity [15] 63% | residual activity [16] 79% | residual activity [17] 90% | residual activity [18] 90% | residual activity [19] 92% | residual activity [20] 95% | residual activity [21] 99% | residual activity [22] 87% | residual activity [23] 66% | residual activity [24] 100% | residual activity [25] 96% | residual activity [26] 82% | residual activity [27] 70% | residual activity [28] 98% | residual activity [29] 98% | residual activity [30] 100% | residual activity [31] 65% | residual activity [32] 90% | residual activity [33] 100% | residual activity [34] 75% | residual activity [35] 93% | residual activity [36] 100% | inhibition [37] -1.64% | inhibition [38] -9.04% | inhibition [39] -5.04%
